In test [1] the test system is apoE/LDL-R double knockout mice. As to conditions: oral dosing, high-fat diet from 2 months of age to 6 months; cited from earlier work.
Test [2] relates to ApoE−/−xCD4dnTβRII mice. The settings on record: infusion, treated for four weeks; cited from earlier work.
Test [3] relates to biomarkers for myocardial infarction risk. The settings on record: clinical trial; cited from earlier work.
The test system of test [4] is human glomerulonephritis. As to conditions: clinical trial; cited from earlier work.
Test [5] has as its target T1, recombinant human FLAP protein (Homo sapiens, UniProt P20292).
T1 construct: made in house; host or cells: Sf9 insect cells (membrane fraction, 100,000 x g pellet)
T1 sequence (P20292 1-161): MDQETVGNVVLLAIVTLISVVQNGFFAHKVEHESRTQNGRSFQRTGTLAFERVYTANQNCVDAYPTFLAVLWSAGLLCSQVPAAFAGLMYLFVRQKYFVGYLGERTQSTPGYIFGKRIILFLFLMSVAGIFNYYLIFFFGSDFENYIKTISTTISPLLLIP
Briefly: FLAP binding assay (Scintillation Proximity Assay, displacement of [125I]L-691,831). The settings on record: read-out: Human FLAP SPA Binding (IC50 nM). The procedure, abridged: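 Scintillation proximity displacement format: 0.08 nM iodinated MK-591 analog [125I]L-691,831 competes with test compound for human FLAP in sf9 insect-cell membranes (5 μg/well, WGA beads), 2 h with shaking, pH 7.5 Tris buffer. 10 μM cold L-691,831 defines non-specific binding.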
(In general: In a scintillation proximity assay essentially only radioactivity close to the scintillant gives light.)

The test system of test [6] is synthesis of LTB4 in human whole blood. Briefly: Human whole blood assay (calcimycin-stimulated LTB4 synthesis). Type of test: cell-based. The settings on record: Homo sapiens; read-out: Human Whole Blood LTB4 Assay for FLAP (IC50 nM). The procedure, abridged: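 Readout: plasma LTB4 by antibody-based HTRF. Compound added to heparinized human whole blood, 15 min 37° C; calcimycin 20 μM final (PBS pH 7.4), 30 min 37° C; spun 1500×g 5 min, plasma taken.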

Results on 16 molecules are retold here after patent US9174980B2, “Heterocyclic compounds as inhibitors of leukotriene production” (Boehringer Ingelheim International GmbH, priority 2012, dated 2015).

For the molecule `CC(C)c1ccc2c(c1)c(SC(C)(C)C)c(CC(C)(C)C(=O)O)n2Cc1ccc(Cl)cc1` [MK-886], in test [1], the “decrease in plaque coverage in the aorta” value was 56% and the “decrease in plaque coverage in the aortic root” value is listed as 43%. Also, the “decrease in plaque area in the aortic root” value in test [2] is roughly 40%.

As for `O=C(O)[C@@H](c1ccc(OCc2ccc3ccccc3n2)cc1)C1CCCC1` [DG-031], in test [3], the “effect on biomarkers for myocardial infarction risk” value is given as “dose-dependent suppression of several biomarkers”.

Consider `CC(C)(C)Sc1c(CC(C)(C)C(=O)O)n(Cc2ccc(Cl)cc2)c2ccc(OCc3ccc4ccccc4n3)cc12` [MK-591], for which the effect on proteinuria entry in test [4] is recorded as “reduce proteinuria”.

In the case of `CC(C)(O)Cn1cc(-c2coc([C@@](C)(c3ccc(-c4cnc(N)nc4)nc3)C3CC3)n2)cn1` [Example 210, 1-[4-(2-{(R)-1-[6-(2-Amino-pyrimidin-5-yl)-pyridin-3-yl]-1-cyclopropyl-ethyl}-oxazol-4-yl)-pyrazol-1-yl]-2-methyl-propan-2-ol], the results for the IC50 in test [5] and in test [6] were 180 nM and 530 nM, respectively.

Turning to `CC(C)C(C)(c1ccc(-c2cnc(N)nc2)cc1)c1cn(Cc2nnn[nH]2)c2ccccc12` (stereo not shown) [Example 73, 5-(4-{3-methyl-2-[1-(1H-tetrazol-5-ylmethyl)-1H-indol-3-yl]butan-2-yl}phenyl)pyrimidin-2-amine], the IC50 (as a rule, the concentration that gives 50% inhibition) was 1.3 nM in test [5] and greater than 5000 nM in test [6].

As to `COc1cccc2c(C(C)(c3ccc(-c4cnc(N)nc4)cc3)C(C)C)cn(Cc3ccccn3)c12` (stereo not shown) [Example 51, 5-(4-{2-[7-methoxy-1-(pyridin-2-ylmethyl)-1H-indol-3-yl]-3-methylbutan-2-yl}phenyl)pyrimidin-2-amine], the IC50 in test [5] turned out to be 2.7 nM; in test [6] it was 840 nM.

For the molecule `Nc1ncc(-c2ccc(C3(c4c[nH]c5ccc(F)cc45)CCC3)cc2)cn1` [Example 83, 5-{4-[1-(5-fluoro-1H-indol-3-yl)cyclobutyl]phenyl}pyrimidin-2-amine], the figures for the IC50 in test [5] and in test [6] were 5 nM and 460 nM, respectively.

As for `Nc1ncc(-c2ccc(C3(c4nc5ccccc5s4)CCC3)cc2)cn1` [Example 128, 5-{4-[1-(1,3-benzothiazol-2-yl)cyclobutyl]phenyl}pyrimidin-2-amine], the IC50 in test [5] was 8.1 nM; in test [6], 2300 nM.

Turning to `CN(C)CCn1cc(-c2cnc(C(C)(c3ccc(-c4cnc(N)nc4)cc3)C3CC3)s2)cn1` (stereo not shown) [Example 172, 5-{4-[1-cyclopropyl-1-(5-{1-[2-(dimethylamino)ethyl]-1H-pyrazol-4-yl}-1,3-thiazol-2-yl)ethyl]phenyl}pyrimidin-2-amine], the IC50 came out at 8.2 nM in test [5] and 73 nM in test [6].

Turning to `Nc1ncc(-c2ccc(C3(c4nc5cnccc5[nH]4)CCC3)cc2)cn1` [Example 126, 5-{4-[1-(1H-imidazo[4,5-c]pyridin-2-yl)cyclobutyl]phenyl}pyrimidin-2-amine], the IC50 in test [5] stood at 71 nM; in test [6] it was 1800 nM.

For the molecule `Nc1ncc(-c2ccc(C3(c4c[nH]c5c(C(=O)N6CCS(=O)(=O)CC6)cccc45)CCC3)cc2)cn1` [Example 114], the values for the IC50 in test [5] and in test [6] were 2.3 nM and 380 nM, respectively.

With `CN(CCS(C)(=O)=O)C(=O)c1cccc2c(C3(c4ccc(-c5cnc(N)nc5)cc4)CCC3)c[nH]c12` [Example 2, 3-{1-[4-(2-aminopyrimidin-5-yl)phenyl]cyclobutyl}-N-methyl-N-[2-(methylsulfonyl)ethyl]-1H-indole-7-carboxamide], the IC50 in test [5] came to 1.9 nM; in test [6], 490 nM.

On to `CC(C)C(C)(c1ccc(-c2cnc(N)nc2)cc1)c1c[nH]c2ccccc12` (stereo not shown) [Example 42, 5-{4-[2-(1H-indol-3-yl)-3-methylbutan-2-yl]phenyl}pyrimidin-2-amine], for which the IC50 is 2.5 nM in test [5] and 170 nM in test [6].

Turning to `Cc1ccc(-c2cnc(C3(c4ccc(-c5cnc(N)nc5)cc4)CCC3)o2)cn1` [Example 16, 5-(4-{1-[5-(6-methylpyridin-3-yl)-1,3-oxazol-2-yl]cyclobutyl}phenyl)pyrimidin-2-amine], the results for the IC50 in test [5] and in test [6] were 7.1 nM and 1400 nM, respectively.

In the case of `CN(CCO)C(=O)c1ccc2[nH]cc(C3(c4ccc(-c5cnc(N)nc5)cc4)CCC3)c2c1` [Example 105, 3-{1-[4-(2-aminopyrimidin-5-yl)phenyl]cyclobutyl}-N-(2-hydroxyethyl)-N-methyl-1H-indole-5-carboxamide], the IC50 in test [5] was 91 nM; in test [6] it was greater than 5000 nM.

For `Nc1ncc(-c2ccc(C3(c4cn(CC(=O)N5CC(O)C5)c5ccccc45)CCC3)cc2)cn1` [Example 133, 2-(3-{1-[4-(2-aminopyrimidin-5-yl)phenyl]cyclobutyl}-1H-indol-1-yl)-1-(3-hydroxyazetidin-1-yl)ethanone], the IC50 in test [5] is 7.5 nM; in test [6], greater than 5000 nM.
